Data on 39 molecules can be found in patent publication US10981917B2, “Heterocyclic compound, its preparation method, and pharmaceutical composition comprising the same” (Daewoong Pharmaceutical Co., Ltd., priority 2017, dated 2021).

For the assay, the target named is PRS (prolyl-tRNA synthetase) protein, PRS portion of EPRS (Homo sapiens (Human), UniProt P07814). The assay can be described thus: PRS enzyme activity inhibition experiment ([3H]proline, liquid scintillation). It is filed as biochemical. Particulars: purified PRS protein, 37° C. for 5 to 10 minutes. In a few lines: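 Values are % inhibition or IC50 ranges (A ≤100 nM, B 100–500 nM, C ≥500 nM) from [3H]proline incorporation measured by liquid scintillation. PRS portion of human EPRS, reacted 5–10 min at 37 °C in pH 7.4 phosphate buffer containing 5 mM ATP and tRNA, compound at 1 μM.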
Chain of PRS (prolyl-tRNA synthetase) protein, PRS portion of EPRS (P07814 1007-1512): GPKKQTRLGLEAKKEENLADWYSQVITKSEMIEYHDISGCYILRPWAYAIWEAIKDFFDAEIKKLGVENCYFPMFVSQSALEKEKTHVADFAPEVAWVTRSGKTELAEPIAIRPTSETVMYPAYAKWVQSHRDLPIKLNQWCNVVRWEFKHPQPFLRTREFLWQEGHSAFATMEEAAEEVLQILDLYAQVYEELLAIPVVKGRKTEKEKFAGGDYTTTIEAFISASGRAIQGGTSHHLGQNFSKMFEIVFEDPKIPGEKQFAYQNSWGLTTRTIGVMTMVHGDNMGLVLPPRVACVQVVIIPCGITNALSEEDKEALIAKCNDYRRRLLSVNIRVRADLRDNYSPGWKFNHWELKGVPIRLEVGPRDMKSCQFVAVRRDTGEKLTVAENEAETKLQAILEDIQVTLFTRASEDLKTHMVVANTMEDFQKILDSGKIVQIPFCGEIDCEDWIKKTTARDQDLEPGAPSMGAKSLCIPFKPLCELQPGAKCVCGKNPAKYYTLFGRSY

Bounds are passed on as bounds.

By IC50 is commonly meant the concentration that gives 50% inhibition. `O[C@H]1CCCN[C@@H]1CCCn1cnc2cc(Cl)c(Cl)cc21` [Example 53, (2R,3S)-2-(3-(5,6-dichloro-1H-benzo[d]imidazol-1-yl)propyl)piperidin-3-ol] displayed a concentration for half-maximal inhibition (IC50) of 100 to 500 nM.

For `O[C@H]1CCCN[C@@H]1CCCn1cnc2cnc(Cl)nc21` [Example 136, (2R,3S)-2-(3-(2-chloro-9H-purin-9-yl)propyl)piperidin-3-ol], the IC50 was no less than 500 nM.

The molecule `O[C@H]1CCCN[C@@H]1/C=C/Cn1cnc2c(F)cc(F)cc21` [Example 179, (2R,3S)-2-((E)-3-(4,6-difluoro-1H-benzo[d]imidazol-1-yl)prop-1-en-1-yl)piperidin-3-ol] displayed an IC50 of 100 to 500 nM.

Molecule `Cc1c(F)ccc2c1ncn2CCC[C@H]1NCCC[C@@H]1O` [Example 64, (2R,3S)-2-(3-(5-fluoro-4-methyl-1H-benzo[d]imidazol-1-yl)propyl)piperidin-3-ol] had an IC50 of no more than 100 nM.

As for `O[C@H]1CCCN[C@@H]1CCCn1cnc2c(-c3cccc(F)c3)cccc21` [Example 20, (2R,3S)-2-(3-(4-(3-fluorophenyl)-1H-benzo[d]imidazol-1-yl)propyl)piperidin-3-ol], the concentration for half-maximal inhibition (IC50) was no less than 500 nM.

In turn, `O[C@H]1CCCN[C@@H]1CCCn1cnc2cc(Cl)c(Br)cc21` [Example 36, (2R,3S)-2-(3-(6-bromo-5-chloro-1H-benzo[d]imidazol-1-yl)propyl)piperidin-3-ol] had an IC50 of 100 to 500 nM.

`O[C@H]1CCCN[C@@H]1CCCn1cnc2ccc(C(F)(F)F)nc21` [Example 129, (2R,3S)-2-(3-(5-(trifluoromethyl)-3H-imidazo[4,5-b]pyridin-3-yl)propyl)piperidin-3-ol] displayed an IC50 of no less than 500 nM.

`O[C@H]1CCCN[C@@H]1C#CCn1cnc2cc(Cl)c(Cl)cc21` [Example 225, (2R,3S)-2-(3-(5,6-dichloro-1H-benzo[d]imidazol-1-yl)prop-1-yn-1-yl)piperidin-3-ol] displayed an IC50 of no less than 500 nM.

Consider `COC(=O)c1cn(CCC[C@H]2NCCC[C@@H]2O)c2c(Br)cccc12` [Example 149, methyl 7-bromo-1-(3-((2R,3S)-3-hydroxypiperidin-2-yl)propyl)-1H-indole-3-carboxylate], for which the IC50 was 100 to 500 nM.

`O[C@H]1CCCN[C@@H]1/C=C/Cn1cnc2cc(F)c(F)cc21` [Example 171, (2R,3S)-2-((E)-3-(5,6-difluoro-1H-benzo[d]imidazol-1-yl)prop-1-en-1-yl)piperidin-3-ol] came in with a half-maximal inhibitory concentration (IC50) of no less than 500 nM.

Molecule `O[C@H]1CCCN[C@@H]1/C=C/Cn1ccc2ccc(Cl)cc21` [Example 197, (2R,3S)-2-((E)-3-(6-chloro-1H-indol-1-yl)prop-1-en-1-yl)piperidin-3-ol] came in with a concentration for half-maximal inhibition (IC50) of no less than 500 nM.

For `O[C@H]1CCCN[C@@H]1CCCn1cnc2cc(F)ccc21` [Example 7, (2R,3S)-2-(3-(5-fluoro-1H-benzo[d]imidazol-1-yl)propyl)piperidin-3-ol], the 50% inhibitory concentration (IC50) lay within 100 to 500 nM.

In the case of `O=[N+]([O-])c1ccc2c(ncn2C/C=C/[C@H]2NCCC[C@@H]2O)c1Cl` [Example 178, (2R,3S)-2-((E)-3-(4-chloro-5-nitro-1H-benzo[d]imidazol-1-yl)prop-1-en-1-yl)piperidin-3-ol], the IC50 fell in the range of 100 to 500 nM.

`O[C@H]1CCCN[C@@H]1CCCn1cnc2cccc(-c3cccc(F)c3)c21` [Example 27, (2R,3S)-2-(3-(7-(3-fluorophenyl)-1H-benzo[d]imidazol-1-yl)propyl)piperidin-3-ol] yielded an IC50 of 100 to 500 nM.

The molecule `O[C@H]1CCCN[C@@H]1CCCn1cnc2c(Cl)c(C(F)(F)F)ccc21` [Example 66, (2R,3S)-2-(3-(4-chloro-5-(trifluoromethyl)-1H-benzo[d]imidazol-1-yl)propyl)piperidin-3-ol] gave an IC50 of no less than 500 nM.

In the case of `COC(=O)c1cc(-c2cc(Cl)cc3ncn(CCC[C@H]4NCCC[C@@H]4O)c23)cs1` [Example 111, methyl 4-(5-chloro-1-(3-((2R,3S)-3-hydroxypiperidin-2-yl)propyl)-1H-benzo[d]imidazol-7-yl)thiophene-2-carboxylate], the half-inhibitory concentration (IC50) is no more than 100 nM.

For `Cc1ccc2ncn(CCC[C@H]3NCCC[C@@H]3O)c2c1` [Example 13, (2R,3S)-2-(3-(6-methyl-1H-benzo[d]imidazol-1-yl)propyl)piperidin-3-ol], the IC50 is no less than 500 nM.

`Cc1noc(C)c1-c1cc(Cl)cc2ncn(CCC[C@H]3NCCC[C@@H]3O)c12` [Example 93, (2R,3S)-2-(3-(5-chloro-7-(3,5-dimethylisoxazol-4-yl)-1H-benzo[d]imidazol-1-yl)propyl)piperidin-3-ol] yielded an IC50 of no less than 500 nM.

Molecule `O[C@H]1CCCN[C@@H]1CCCn1cnc2ccc(Cl)cc21` [Example 1, (2R,3S)-2-(3-(6-chloro-1H-benzo[d]imidazol-1-yl)propyl)piperidin-3-ol] displayed an IC50 of 100 to 500 nM.

Molecule `O[C@H]1CCCN[C@@H]1/C=C/CN1CCc2cc(Cl)ccc21` [Example 195, (2R,3S)-2-((E)-3-(5-chloroindolin-1-yl)prop-1-en-1-yl)piperidin-3-ol] yielded an IC50 of no less than 500 nM.

`O[C@H]1CCCN[C@@H]1CCCn1cnc2cc(Cl)cc(F)c21` [Example 79, (2R,3S)-2-(3-(5-chloro-7-fluoro-1H-benzo[d]imidazol-1-yl)propyl)piperidin-3-ol] registered a half-maximal inhibitory concentration (IC50) of no more than 100 nM.

With `O[C@H]1CCCN[C@@H]1CCCn1cnc2nc(Cl)c(Cl)cc21` [Example 127, (2R,3S)-2-(3-(5,6-dichloro-1H-imidazo[4,5-b]pyridin-1-yl)propyl)piperidin-3-ol], the IC50 was in the range of 100 to 500 nM.

Molecule `COC(=O)c1cn(C/C=C/[C@H]2NCCC[C@@H]2O)c2c(Cl)cccc12` [Example 212, methyl 7-chloro-1-((E)-3-((2R,3S)-3-hydroxypiperidin-2-yl)allyl)-1H-indole-3-carboxylate] gave an IC50 of no less than 500 nM.

In the case of `Cc1ccc2c(ncn2CCC[C@H]2NCCC[C@@H]2O)c1Cl` [Example 44, (2R,3S)-2-(3-(4-chloro-5-methyl-1H-benzo[d]imidazol-1-yl)propyl)piperidin-3-ol], the 50% inhibitory concentration (IC50) was 100 to 500 nM.

`O[C@H]1CCCN[C@@H]1CCCn1cnc2cc(Cl)cc(-c3cnn(C(F)F)c3)c21` [Example 89, (2R,3S)-2-(3-(5-chloro-7-(1-(difluoromethyl)-1H-pyrazol-4-yl)-1H-benzo[d]imidazol-1-yl)propyl)piperidin-3-ol] displayed an IC50 of no more than 100 nM.

Regarding `O[C@H]1CCCN[C@@H]1CCCn1cnc2cc(Br)c(Br)cc21` [Example 54, (2R,3S)-2-(3-(5,6-dibromo-1H-benzo[d]imidazol-1-yl)propyl)piperidin-3-ol], the IC50 is no less than 500 nM.

Consider `O[C@H]1CCCN[C@@H]1CCCn1cnc2ncc(Br)cc21` [Example 120, (2R,3S)-2-(3-(6-bromo-1H-imidazo[4,5-b]pyridin-1-yl)propyl)piperidin-3-ol], for which the IC50 is no less than 500 nM.

`O[C@H]1CCCN[C@@H]1CCCn1cnc2c(Cl)c(Cl)cnc21` [Example 130, (2R,3S)-2-(3-(6,7-dichloro-3H-imidazo[4,5-b]pyridin-3-yl)propyl)piperidin-3-ol] gave an IC50 of 100 to 500 nM.

`O[C@H]1CCCN[C@@H]1CCCn1cnc2ccc(C(F)(F)F)c(Cl)c21` [Example 67, (2R,3S)-2-(3-(7-chloro-6-(trifluoromethyl)-1H-benzo[d]imidazol-1-yl)propyl)piperidin-3-ol] came in with an IC50 of no more than 100 nM.

In the case of `Cc1c(Br)ccc2c1ncn2C/C(F)=C/[C@H]1NCCC[C@@H]1O` [Example 218, (2R,3S)-2-((Z)-3-(5-bromo-4-methyl-1H-benzo[d]imidazol-1-yl)-2-fluoroprop-1-en-1-yl)piperidin-3-ol], the half-maximal inhibitory concentration (IC50) was no less than 500 nM.

Regarding `Cc1c(Br)ccc2c1ncn2CC#C[C@H]1NCCC[C@@H]1O` [Example 226, (2R,3S)-2-(3-(5-bromo-4-methyl-1H-benzo[d]imidazol-1-yl)prop-1-yn-1-yl)piperidin-3-ol], the IC50 is no less than 500 nM.

The molecule `O[C@H]1CCCN[C@@H]1CCCn1cnc2ccc(Cl)nc21` [Example 118, (2R,3S)-2-(3-(5-chloro-3H-imidazo[4,5-b]pyridin-3-yl)propyl)piperidin-3-ol] displayed an IC50 of no less than 500 nM.

As to `O[C@H]1CCCN[C@@H]1CCCn1cnc2cc(Cl)cc(-c3cnn(C4COC4)c3)c21` [Example 102, (2R,3S)-2-(3-(5-chloro-7-(1-(oxetan-3-yl)-1H-pyrazol-4-yl)-1H-benzo[d]imidazol-1-yl)propyl)piperidin-3-ol], the IC50 lay in the range of 100 to 500 nM.

`Cn1c(=O)c2c(ncn2CCC[C@H]2NCCC[C@@H]2O)n(C)c1=O` [Example 162, 7-(3-((2R,3S)-3-hydroxypiperidin-2-yl)propyl)-1,3-dimethyl-1H-purine-2,6(3H,7H)-dione] displayed a half-inhibitory concentration (IC50) of no less than 500 nM.

`O[C@H]1CCCN[C@@H]1CCCn1cnc2cccc(N3CCCC3)c21` [Example 98, (2R,3S)-2-(3-(7-(pyrrolidin-1-yl)-1H-benzo[d]imidazol-1-yl)propyl)piperidin-3-ol]: the half-inhibitory concentration (IC50) lay in the range of 100 to 500 nM.

Regarding `O[C@H]1CCCN[C@@H]1CCCn1cnc2c(Cl)c(Br)cnc21` [Example 133, (2R,3S)-2-(3-(6-bromo-7-chloro-3H-imidazo[4,5-b]pyridin-3-yl)propyl)piperidin-3-ol], the IC50 is no less than 500 nM.

The molecule `O[C@H]1CCCN[C@@H]1CCCn1cnc2cccc(-c3cn[nH]c3)c21` [Example 31, (2R,3S)-2-(3-(7-(1H-pyrazol-4-yl)-1H-benzo[d]imidazol-1-yl)propyl)piperidin-3-ol] registered an IC50 of 100 to 500 nM.

As to `COC(=O)c1cn(C/C=C/[C@H]2NCCC[C@@H]2O)c2cc(Br)ccc12` [Example 214, methyl 6-bromo-1-((E)-3-((2R,3S)-3-hydroxypiperidin-2-yl)allyl)-1H-indole-3-carboxylate], the concentration for half-maximal inhibition (IC50) was 100 to 500 nM.

`O[C@H]1CCCN[C@@H]1CCCn1cnc2cccc(OC(F)(F)F)c21` [Example 17, (2R,3S)-2-(3-(7-(trifluoromethoxy)-1H-benzo[d]imidazol-1-yl)propyl)piperidin-3-ol] gave an IC50 of no less than 500 nM.
